Assays:
[1] = tested on: glucuronidase activity in the gut microbiome; format: in vivo, mouse; settings: vancomycin in drinking water 0.1 mg/mL; 4 of 5 sets of litter mates
Procedure: For the glucuronidase studies, female C57BL/6J mice age 6-8 weeks were purchased from Jackson Laboratories and housed with a 12 hour light/12 hour dark light cycle. Food (PMI 5002) and water were provided ad libitum. Mice were acclimated for 7 days prior to the onset of any treatment. During this time, littermates were co-housed. After this time, mice were placed in separate cages for antibiotic treatment. One set of littermates (n=5) were exposed to vancomycin in drinking water (0.1 mg/mL). The other set were given normal water. To monitor for adverse reactions to the antibiotics, researchers could not be blinded to treatment group during exposure, and were not blinded during subsequent analysis.
Microbial cells from the mouse gut were suspended in PBS with protease inhibitor (cOmplete EDTA-free Protease Inhibitor, Roche) and lysed via bead beating (Bullet Blender). 4-methylumbelliferyl-s-D-glucuronide (4-MUG; 1 mM) was added to 50 μL lysate (0.9 μg total protein) to achieve a final concentration of 500 μM. […] Fluorescence was measured using a plate reader (Molecular Biosciences), and amount of hydrolyzed substrate was calculated relative to a standard curve. Rate (mM/s) was determined via linear regression (GraphPad Prism) and activity was calculated as rate per μg protein. […]

gut microbiota = format: in vivo, mouse; settings: vancomycin in drinking water 0.1 mg/mL
[2] = tested on: cytosolic fraction of mouse liver lysate; format: binding; settings: increasing probe concentrations; SDS-PAGE
Procedure: FIG. 15B show results from labeling glutathione transferase (GSH and GST) with probe embodiments described herein using 1 μM mouse liver cytosol.
(§1) Concentration dependent labeling of a recombinant GST (FIG. 15A) was evaluated. The two probe embodiments, GSH-ABP-G and GST-ABP-H, were applied with increasing concentrations to the recombinant human GSTM1, a GST isoenzyme that is highly expressed in mammalian liver. […] Both probes were then applied with increasing concentrations to the cytosolic fraction of mouse liver lysate to further test probe targeting (FIG. 15B). Both probes strongly label two distinct bands at 24 kDa. The lower band is likely GSTP1, a 23.6 kDa protein highly abundant in the liver. […] To determine the specific GST isoforms targeted by each probe, LC-MS based proteomics analyses of mouse liver labeling, and labeling in the presence of specific inhibitors were performed (FIGS. 16A and 16B). […] 27 probe-targeted proteins were determined to be statistically significant targets of the GSH-ABP-G probe embodiment at a fold-change of 3 over no UV exposure controls. Of these 27 proteins, 8 are known GSTs and include members of mu, alpha, pi, theta, kappa, and zeta classes. The remaining proteins include five proteins with known GSH binding, one with known antioxidant and drug binding activity, and five proteins highly abundant in liver with no known GSH binding activity. […]

[3] = tested on: GSTs in mouse liver cytosol
recombinant human GSTM1 = target: T1, recombinant human GSTM1 (Homo sapiens, UniProt P09488); experiment: Concentration-dependent probe labeling of recombinant GST (SDS-PAGE); format: binding; settings: increasing probe concentrations, 30 minutes incubation, rhodamine click
T1 sequence (P09488 1-218): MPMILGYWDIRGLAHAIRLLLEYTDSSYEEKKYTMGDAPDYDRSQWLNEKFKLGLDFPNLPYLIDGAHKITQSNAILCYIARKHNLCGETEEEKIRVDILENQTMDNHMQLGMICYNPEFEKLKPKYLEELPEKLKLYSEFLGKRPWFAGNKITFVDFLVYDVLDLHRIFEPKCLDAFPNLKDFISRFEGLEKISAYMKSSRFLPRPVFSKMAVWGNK
Procedure: FIG. 15A show results from labeling glutathione transferase (GSH and GST) with probe embodiments described herein using 1 μM recombinant human GSTm1.
as §1

[4] = tested on: GST isoenzymes in lung lysate; experiment: LC-MS proteomics of probe-enriched mouse lung lysate; format: binding
[5] = tested on: GSTs (H site) in mouse liver cytosol; settings: read-out: EC50 of inhibition of GST-ABP-H probe labeling, 10 μM probe
[6] = 10 μM probe, mouse liver cytosol

Row | Compound | selectivity of labeling in mouse liver cytosol [2] | number of GSTs enriched by probe in mouse liver [3, 6] | labeling of recombinant human GSTM1 (recombinant human GSTM1) | number of GST isoenzymes enriched by probe in lung lysate [4] | other results
1 | CN[C@H](CC(C)C)C(=O)N[C@H]1C(=O)N[C@@H](CC(N)=O)C(=O)N[C@H]2C(=O)N[C@H]3C(=O)N[C@H](C(=O)N[C@H](C(=O)O)c4cc(O)cc(O)c4-c4cc3ccc4O)[C@H](O)c3ccc(c(Cl)c3)Oc3cc2cc(c3O[C@@H]2O[C@H](CO)[C@@H](O)[C@H](O)[C@H]2O[C@H]2C[C@](C)(N)[C@H](O)[C@H](C)O2)Oc2ccc(cc2Cl)[C@H]1O [Vancomycin] |  |  |  |  | glucuronidase activity in gut microbiome after treatment [1]: reduced, but did not eliminate; relative abundance of Firmicutes in gut microbiota (gut microbiota): dramatically decreased
2 | C#CCCCC(=O)Nc1cccc2c1C(=O)C(Cl)=C(Cl)C2=O [GST-ABP-H, N-(6,7-dichloro-5,8-dioxo-5,8-dihydronaphthalen-1-yl)hex-5-ynamide] | more susceptible to off-target labeling | 12 | concentration-dependent targeting | 11 | 
3 | CCN1C(=O)C=CC1=O [N-ethylmaleimide, reference compound] |  |  |  |  | competition of GST-ABP-H labeling (proteomic analysis) ([3]; competitor 100 μM, mouse liver cytosol): failed to compete for binding of most GST isoenzymes
4 | C#CCNC(=O)C(Cc1ccc(C(=O)c2ccccc2)cc1)NC(=O)CSCC(NC(=O)CC[C@H](N)C(=O)O)C(=O)NCC(=O)O (some centres unmarked) [GSH-ABP-G, N5-(3-((2-((3-(4-benzoylphenyl)-1-oxo-1-(prop-2-yn-1-ylamino)propan-2-yl)amino)-2-oxoethyl)thio)-1-((carboxymethyl)amino)-1-oxopropan-2-yl)glutamine] | high selectivity | 8 | concentration-dependent targeting | 3 | number of statistically significant probe-targeted proteins ([3]; fold-change of 3 over no UV exposure controls, 10 μM probe): 27
5 | CCCCCCSC[C@H](NC(=O)CC[C@H](N)C(=O)O)C(=O)NCC(=O)O [S-hexylglutathione, reference compound] |  |  |  |  | EC50 [5]: 41.5 µM; fold change inhibition of GST-ABP-H and GSH-ABP-G labeling of GSTA3, M1, and P1 ([3]; S-hexylglutathione competed liver cytosol, p≤0.05): > 3.0

Source: patent US11891655B2, “Probe for selectively characterizing enzymes involved in xenobiotic metabolism and method of making and using the same” (Battelle Memorial Institute, priority 2017, dated 2024)
